According to patent publication US5716971A, “Pyridine derivatives, their production and use” (Takeda Chemical Industries, Ltd., priority 1993, dated 1998):
Like-named read-outs stand apart in the source and are kept apart here.

How the values were obtained:
anesthetized dogs = assay: Action of increasing coronary blood flow in anesthetized dogs (administration into coronary artery); assay type: in vivo, dog; conditions: injected into coronary artery, anesthetized Beagle dogs
Procedure: Action of increasing coronary blood flow in anesthetized dogs (Administration into coronary artery) Method: Beagle dogs (10 to 12 kg body weight) were anesthetized with pentobarbital and subjected to thoractomy under artificial respiration. A by-pass fitted with an electromagnetic flowmeter (Nippon Koden) was prepared between the left coronary artery and left carotid artery,and the volume of coronary blood flow was measured. […]
Maximal change rate against the value measured before the administration (% of basal flow) and the duration period [shown in terms of the time (T1/2) in which the activity is reduced to half] are shown in Table 67. As a result, it is apparent that the compounds of this invention show action of increasing coronary blood flow.

specimen of rat aorta [1] = assay: Vasorelaxation activity in a specimen of rat aorta: contraction caused by TEA and BaCl2; conditions: TEA (30-45 mM) and BaCl2 (0.3 mM) contraction, read-out: constriction inhibitory ratio
Procedure: Vasorelaxation activity in a specimen of rat aorta Effects on contraction caused by tetraethylammonium chloride (TEA) and barium chloride (BaCl2)
(§1) Male Wister rats (10 to 13 week old were employed for the experiment. After dehematization, the aorta was excised and a ring specimen (5 mm length) was prepared. The specimen was suspended in a bath filled with oxygenated (95% O2 -5%CO2) Krebs solution (36° C.). The ring specimen was fixed at one end and the other end was connected to a transducer (Nippon Koden) for recording tension to determine the tension. After a stabilization period of one hour, TEA (30-45 mM) and BaCl2 (0.3 mM) were added to the bath to cause vasoconstriction. After the constriction had reached a steady state (after about 15 minutes), a test compound was added to the bath and its relaxation activity was measured.

specimen of rat aorta [2] = assay: Vasorelaxation activity in a specimen of rat aorta: contraction caused by KCl; conditions: read-out: constriction inhibitory ratio
Procedure: as §1
Vasorelaxation activity in a specimen of rat aorta Effects on contraction caused by potassium chloride (KCl)
The same experiment was conducted as in Experiment 1, excepting the use of KCl ([…]) instead of TEA and BaCl2

[3] = system: Spontaneously hypertensive rats; assay: Hypotensive activity in rats (Tail Cuff Method), oral; assay type: in vivo; conditions: Rattus norvegicus, SHR
Procedure: Hypotensive activity in rats (Tail Cuff Method)
Spontaneously hypertensive rats (SHR, male, 20 to 23 week old) were warmed up to 36° C. The blood pressure at the tail aorta was measured by the tail cuff method. The blood pressure was measured three times, i.e. before oral administration of the test compound, two hours after the administration and five hours after the administration. The test compound was orally administered in the state of a suspension in gum arabic.
Maximal, hypotensive effect against the blood pressure before the administration is shown as % pre. in Table 66. As a result, it is apparent that the compounds of this invention show hypotensive activity.

[4] = after 2 hours, read-out: Maximal hypotensive effect against blood pressure before administration (% pre.), after 2 hours
[5] = after 5 hours, read-out: Maximal hypotensive effect against blood pressure before administration (% pre.), after 5 hours

Row | Structure (SMILES) | inhibition at 1 µM (specimen of rat aorta [1]) | inhibition at 3 µM (specimen of rat aorta [1]) | inhibition at 1 µM (specimen of rat aorta [2]) | inhibition at 3 µM (specimen of rat aorta [2]) | duration (T1/2): time in which the activity is reduced to half (anesthetized dogs; 30 ug/day) | also measured
1 | CC(C)(C)O/N=C(/c1cc(Br)c(F)cc1O)c1c(OC(=O)C(C)(C)C)ccc[n+]1[O-] [Compound 171, (Z)-2-(5-bromo-4-fluoro-2-hydroxybenzoyl)-3-pivaloyloxypyridine N-oxide O-t-butyloxime] | – | – | – | – | – | duration (T1/2): time in which the activity is reduced to half (anesthetized dogs; 10 μg/dog administration): 23.4 min
2 | Cc1cc(O)c(/C(=N/OC(C)(C)C)c2ncccc2O)cc1Br [Compound 61, (Z)-2-(5-bromo-2-hydroxy-4-methylbenzoyl)-3-hydroxypyridine O-t-butyloxime] | 54% | 100% | 4% | 7% | 2.0 min | –
3 | CC(C)(C)O/N=C(/c1cc(F)c(F)cc1O)c1c(O)ccc[n+]1[O-] [Compound 59, (Z)-2-(4,5-difluoro-2-hydroxybenzoyl)-3-hydroxypyridine N-oxide O-t-butyloxime] | 6% | 100% | – | – | 15.1 min | inhibition in vivo at 1 mg/kg [3, 4]: 22%; inhibition in vivo at 1 mg/kg [3, 5]: 10%; inhibition in vivo at 10 mg/kg [3, 4]: 45%; inhibition in vivo at 10 mg/kg [3, 5]: 54%
4 | CC(C)(C)O/N=C(/c1cc(Cl)c(Cl)cc1O)c1cccc[n+]1[O-] [Compound 95, (Z)-2-(4,5-dichloro-2-hydroxybenzoyl)pyridine N-oxide O-t-butyloxime] | 59% | 71% | 3% | 12% | 4.0 min | –
5 | COc1cc(O)c(/C(=N/OC(C)(C)C)c2ncccc2O)cc1Br [Compound 43] | – | 63% | – | 0% | 1.7 min | inhibition at 10 µM (specimen of rat aorta [1]): 75%; inhibition at 10 µM (specimen of rat aorta [2]; 10 μM): 5%
6 | CC(C)(C)O/N=C(/c1cc(Cl)c(F)cc1O)c1c(O)ccc[n+]1[O-] [Compound 58, (Z)-2-(5-chloro-4-fluoro-2-hydroxybenzoyl)-3-hydroxypyridine N-oxide O-t-butyloxime] | 84% | 94% | 0% | 0% | 47.7 min | inhibition in vivo at 1 mg/kg [3, 4]: 35%; inhibition in vivo at 1 mg/kg [3, 5]: 19%; inhibition in vivo at 10 mg/kg [3, 4]: 55%; inhibition in vivo at 10 mg/kg [3, 5]: 45%
7 | Cc1ccc(O)c(/C(=N/OC(C)(C)C)c2ncccc2O)c1 [Compound 23, (Z)-2-(2-hydroxy-5-methylbenzoyl)-3-hydroxypyridine O-t-butyloxime] | – | – | – | – | 1.2 min | –
8 | CC(C)(C)O/N=C(/c1cc(Cl)c(C#N)cc1O)c1ncccc1O [Compound 174, (Z)-2-(5-chloro-4-cyano-2-hydroxybenzoyl)-3-hydroxy pyridine O-t-butyloxime] | 100% | – | – | – | – | duration (T1/2): time in which the activity is reduced to half (anesthetized dogs; 10 μg/dog administration): 4.4 min
9 | CC(C)(C)O/N=C(/c1cc(Cl)c(C#N)cc1O)c1c(O)ccc[n+]1[O-] [Compound 175, (Z)-2-(5-chloro-4-cyano-2-hydroxybenzoyl)-3-hydroxy pyridine N-oxide O-t-butyloxime] | 100% | – | 4% | – | – | duration (T1/2): time in which the activity is reduced to half (anesthetized dogs; 10 μg/dog administration): 34.3 min
10 | CC(C)(C)O/N=C(/c1cc(F)c(F)cc1O)c1cccc[n+]1[O-] [Compound 100, (Z)-2-(4,5-difluoro-2-hydroxybenzoyl)pyridine N-oxide O-t-butyloxime] | 52% | 100% | 4% | 11% | 3.3 min | –
11 | CC(C)(C)O/N=C(/c1cc(Br)c(C#N)cc1O)c1ncccc1O [Compound 128, (Z)-2-(5-bromo-4-cyano-2-hydroxybenzoyl)-3-hydroxy pyridine O-t-butyloxime] | 100% | – | – | – | 6.2 min | –
12 | CC(C)(C)O/N=C(/c1cc([N+](=O)[O-])ccc1O)c1ncccc1O [Compound 27, (Z)-2-(2-hydroxy-5-nitrobenzoyl)-3-hydroxypyridine O-t-butyloxime] | – | – | – | – | 2.1 min | –
13 | CC(C)(C)C/N=C(/c1cc(Br)ccc1O)c1cccc[n+]1[O-] [Compound 105, (Z)-2-[(5-bromo-2-hydroxy)-α-neopentyliminobenzyl]pyridine N-oxide] | 46% | 87% | 4% | 28% | 2.9 min | inhibition in vivo at 30 mg/kg [3, 4]: 59%; inhibition in vivo at 30 mg/kg [3, 5]: 44%
14 | CC(C)(C)ON=C(c1cc(Cl)ccc1O)c1ncccc1O [Compound 14] | 71% | 90% | 2% | 11% | 1.6 min | –
15 | CC(C)(C)O/N=C(/c1cc(C#N)c(Cl)cc1O)c1c(O)ccc[n+]1[O-] [Compound 132, (Z)-2-(4-chloro-5-cyano-2-hydroxybenzoyl)-3-hydroxy pyridine N-oxide O-t-butyloxime] | 100% | – | – | – | 71.8 min | –
16 | CC(C)(C)O/N=C(/c1cc(F)c(Cl)cc1O)c1cccc[n+]1[O-] [Compound 103, (Z)-2-(4-chloro-5-fluoro-2-hydroxybenzoyl)pyridine N-oxide O-t-butyloxime] | – | 29% | – | – | 3.0 min | inhibition at 10 µM (specimen of rat aorta [1]): 47%
17 | CC(C)(C)O/N=C(/c1cc(F)c(Cl)cc1O)c1c(O)ccc[n+]1[O-] [Compound 56, (Z)-2-(4-chloro-5-fluoro-2-hydroxybenzoyl)-3-hydroxypyridine N-oxide O-t-butyloxime] | 100% | – | – | – | 27.3 min | inhibition in vivo at 10 mg/kg [3, 4]: 51%; inhibition in vivo at 10 mg/kg [3, 5]: 42%
18 | CC(C)(C)O/N=C(/c1cc(F)c(C#N)cc1O)c1c(O)ccc[n+]1[O-] [Compound 177, (Z)-2-(4-cyano-5-fluoro-2-hydroxybenzoyl)-3-hydroxy pyridine N-oxide O-t-butyloxime] | 50% | 100% | 0% | 0% | – | duration (T1/2): time in which the activity is reduced to half (anesthetized dogs; 10 μg/dog administration): 9.8 min
19 | CC(C)(C)O/N=C(/c1cc(C#N)c(Cl)cc1O)c1ncccc1O [Compound 130, (Z)-2-(4-chloro-5-cyano-2-hydroxybenzoyl)-3-hydroxy pyridine O-t-butyloxime] | 100% | – | – | – | 4.4 min | –
20 | CC(C)(C)O/N=C(/c1cc(Br)ccc1O)c1ncccc1O [Compound 6, (Z)-2-(5-bromo-2-hydroxybenzoyl)-3-hydroxypyridine O-t-butyloxime] | 62% | 82% | 5% | 17% | 1.5 min | –
21 | CC(C)(C)O/N=C(/c1cc(F)c(C#N)cc1O)c1ncccc1O [Compound 176, (Z)-2-(4-cyano-5-fluoro-2-hydroxybenzoyl)-3-hydroxyoyridine O-t-butyloxime] | 100% | – | – | – | – | duration (T1/2): time in which the activity is reduced to half (anesthetized dogs; 10 μg/dog administration): 1.8 min
22 | CC(C)(C)O/N=C(/c1cc(Br)c(C#N)cc1O)c1c(O)ccc[n+]1[O-] [Compound 129, (Z)-2-(5-bromo-4-cyano-2-hydroxybenzoyl)-3-hydroxy pyridine N-oxide O-t-butyloxime] | 100% | – | 18% | – | – | duration (T1/2): time in which the activity is reduced to half (anesthetized dogs; 10 μg/dog administration): 42.9 min
